pIC50: −log10 of the molar value.

Experiment [1] can be described thus: Antioxidant activity assessed as DPPH radical scavenging activity incubated for 30 mins under dark condition by UV-vis spectrophotometric method. It is filed as functional.
Another experiment has as its system HeLa. Put plainly: Cytotoxicity against human HeLa cells after 6 days by MTT assay. It is filed as functional, cell-based. The conditions noted are these: 144 h.
The test system of another experiment is A549. Put plainly: Cytotoxicity against human A549 cells after 6 days by MTT assay. It is filed as functional, cell-based. The conditions noted are these: A549, 144 h.
Another experiment deals with MCF7. Put plainly: Cytotoxicity against human MCF7 cells after 6 days by MTT assay. As to conditions: MCF7, 144 h. The class given is functional, cell-based.
Another experiment has as its system HEK293. Put plainly: Cytotoxicity against HEK293 cells after 6 days by MTT assay. The class given is cell-based. The conditions noted are these: Homo sapiens, HEK293, 144 h.

`COc1cccc(/C=N/N=C2/c3cc(Cl)ccc3-n3c2nc2ccccc2c3=O)c1O`: the pIC50 in experiment [1] was 4.65; in the experiment with HeLa it was 4.44; in the experiment on A549, 4.39; with MCF7, 4.45.

Take `COc1cccc(/C=N/N=C2/c3cc(I)ccc3-n3c2nc2ccccc2c3=O)c1O`: the pIC50 was 4.96 in experiment [1], 4.53 with HeLa, 4.49 with A549 and 4.52 in the experiment on MCF7.

Take `CC(/C=C(\O)c1ccccc1)=N\N=C1\c2cc(-c3ccncc3)ccc2-n2c1nc1ccccc1c2=O`: the pIC50 was 5.21 in experiment [1]; 4.91 with HeLa; 5.22 with A549; 4.12 in the experiment on HEK293; 4.94 in the experiment with MCF7.

Regarding `CC(/C=C(\O)c1ccccc1)=N\N=C1\c2cc(Cl)ccc2-n2c1nc1ccccc1c2=O`, the pIC50 in experiment [1] was 4.90; in the experiment with HeLa, 4.63; in the experiment with A549, 4.74; in the experiment on HEK293, 4.15; in the experiment on MCF7 it was 4.71.

In the case of `CC(/C=C(\O)c1ccccc1)=N\N=C1\c2cc(F)ccc2-n2c1nc1ccccc1c2=O`, the pIC50 in experiment [1] is 4.70; in the experiment with HeLa, 4.61; in the experiment on A549, 4.49; in the experiment on MCF7, 4.69.

On to `CC(/C=C(\O)c1ccccc1)=N\N=C1\c2cc([N+](=O)[O-])ccc2-n2c1nc1ccccc1c2=O`, for which the pIC50 was 4.53 in experiment [1], 4.48 in the experiment with HeLa, 4.55 in the experiment with A549 and 4.50 in the experiment with MCF7.

On to `CC(/C=C(\O)c1ccccc1)=N\N=C1\c2cc(-c3ccc(C(=O)O)cc3)ccc2-n2c1nc1ccccc1c2=O`, for which the pIC50 is 5.30 in experiment [1]; 5.03 in the experiment on HeLa; 5.14 in the experiment on A549; 4.19 in the experiment with HEK293; 5.03 in the experiment on MCF7.

In the case of `N/N=C1/c2cc([N+](=O)[O-])ccc2-n2c1nc1ccccc1c2=O`, the pIC50 is 4.56 in experiment [1], 4.30 in the experiment on HeLa, 4.34 in the experiment with A549 and 4.27 with MCF7.

With `COc1cccc(/C=N/N=C2/c3cc(F)ccc3-n3c2nc2ccccc2c3=O)c1O`, the negative logarithm of the IC50 (pIC50) was 4.68 in experiment [1], 4.46 in the experiment with HeLa, 4.51 in the experiment with A549 and 4.45 in the experiment on MCF7.

For the compound `N/N=C1/c2cc(-c3ccncc3)ccc2-n2c1nc1ccccc1c2=O`, the pIC50 in experiment [1] is 4.95; in the experiment with HeLa it was 4.36; in the experiment on A549 it was 4.32; in the experiment on MCF7, 4.30.

Consider `N/N=C1/c2cc(I)ccc2-n2c1nc1ccccc1c2=O`, for which the pIC50 in experiment [1] was 4.60; in the experiment on HeLa, 4.29; with A549, 4.36; in the experiment with MCF7 it was 4.35.

For the compound `COc1cccc(/C=N/N=C2/c3cc([N+](=O)[O-])ccc3-n3c2nc2ccccc2c3=O)c1O`, the pIC50 in experiment [1] is 4.54; with HeLa it was 4.42; with A549, 4.40; in the experiment with MCF7 it was 4.47.

For `COc1cccc(/C=N/N=C2/c3cc(-c4ccncc4)ccc3-n3c2nc2ccccc2c3=O)c1O`, the pIC50 is 5.30 in experiment [1], 4.61 in the experiment on HeLa, 4.48 with A549 and 4.61 in the experiment with MCF7.

For `N/N=C1/c2cc(-c3ccc(C(=O)O)cc3)ccc2-n2c1nc1ccccc1c2=O`, the negative logarithm of the IC50 (pIC50) is 4.66 in experiment [1], 4.27 with HeLa, 4.21 with A549 and 4.21 with MCF7.

In the case of `N/N=C1/c2cc(F)ccc2-n2c1nc1ccccc1c2=O`, the negative logarithm of the IC50 (pIC50) was 4.78 in experiment [1], 4.17 in the experiment with HeLa, 4.35 with A549 and 4.26 in the experiment on MCF7.

Consider `N/N=C1/c2cc(Cl)ccc2-n2c1nc1ccccc1c2=O`, for which the pIC50 in experiment [1] is 4.70; in the experiment on HeLa, 4.25; in the experiment on A549, 4.21; with MCF7, 4.17.

For `COc1cccc(/C=N/N=C2/c3cc(-c4ccc(C(=O)O)cc4)ccc3-n3c2nc2ccccc2c3=O)c1O`, the pIC50 is 5.27 in experiment [1], 4.49 with HeLa, 4.41 in the experiment with A549 and 4.43 in the experiment with MCF7.

Regarding `O=C1O[C@H]([C@@H](O)CO)C(O)=C1O` [ASCORBIC ACID], in experiment [1], the pIC50 is 5.46.

Take `CC(/C=C(\O)c1ccccc1)=N\N=C1\c2cc(I)ccc2-n2c1nc1ccccc1c2=O`: the pIC50 is 4.94 in experiment [1]; 4.73 in the experiment on HeLa; 4.69 with A549; 4.08 in the experiment on HEK293; 4.70 in the experiment on MCF7.

The record behind these values is ChEMBL document CHEMBL4043247, “Design, synthesis and biological evaluation of 8-substituted-6-hydrazonoindolo[2,1-b]quinazolin-12(6H)-one scaffolds as potential cytotoxic agents: IDO-1 targeting molecular docking studies” (Bioorg Med Chem Lett, 2017).
